# Data taken from patent US10696675B2, “Imidazopyridopyrimidine derivative compound and use thereof” (HANMI PHARMACEUTICAL CO., LTD., priority 2016, dated 2020).
# What was measured:
# [1] = target: FGFR4 (Homo sapiens, UniProt P22455); assay: Activity inhibition for FGFR4 kinase (Z′-LYTE biochemical assay, Invitrogen SelectScreen); settings: ATP concentration based on Km
# Experimental: (§1) For the synthesized compounds, inhibitory activity for FGFR1, 2, 3, 4 kinase was measured. Activity measurement was carried out by requesting to SelectScreen® Biochemical Kinase Profiling Service of Invitrogen. A Z′-LYTE® biochemical assay method was used, and the ATP concentration was set based on the Km value.
# [2] = system: HUH7 cells; assay: Proliferation inhibitory effect for HUH7 cells (SRB assay); format: cell-based; settings: Homo sapiens, Huh-7, 72 hours, GI50, read-out: IC50 HUH7 Cell Line
# Experimental: Test Example 2: Measuring Inhibitory Effect of FGFR Inhibitor Using Cell Line
# The test was carried out for identifying a proliferation inhibitory effect of the compound of the present invention for HUH7 cells. HUH7 cell lines were counted and 5.0×10^3 cells were inoculated per well in a 96 well plate. After the innoculation, the cells were cultured for 24 hours in a 37 □ and 5% carbon dioxide (CO2) incubator. On the next day, the synthesized compounds were each diluted and prepared. The diluted compounds were introduced to the cell lines inoculated the previous day by concentrations, and reacted for 72 hours in a 37 □ and 5% carbon dioxide (CO2) incubator. However, to a positive control to which the compound was not added, 0.1% dimethyl sulfoxide (DMSO) diluted with a medium was introduced. To a negative control plate, a trichloroacetic acid (TCA) solution was introduced, and fixed at 4 □. After reacting for 72 hours, the medium including the compound was removed, a TCA solution was added thereto, and the cells were fixed for 30 minutes to 60 minutes at 4 □. The TCA solution was discarded, the plate was washed off with distilled water and then dried in the air. A 0.4% sulforhodamin B (SRB) solution was added to the plate and dyed for 10 minutes at room temperature. The plate was washed off with tap water including a 1% acetic acid solution, and then dried in the air. A 10 mM Trizma base solution was added to dissolve the solid SRB. Using a microplate reader, optical density (O.D. value) was measured at 540 nm. A GI50 value of each of the compounds was calculated using GraphPad Prism V6.0 Software.
# [3] = target: FGFR1 (Homo sapiens, UniProt P11362); assay: Activity inhibition for FGFR1 kinase (Z′-LYTE biochemical assay, Invitrogen SelectScreen); settings: ATP concentration based on Km
# Sequence of FGFR1 (P11362 22-822): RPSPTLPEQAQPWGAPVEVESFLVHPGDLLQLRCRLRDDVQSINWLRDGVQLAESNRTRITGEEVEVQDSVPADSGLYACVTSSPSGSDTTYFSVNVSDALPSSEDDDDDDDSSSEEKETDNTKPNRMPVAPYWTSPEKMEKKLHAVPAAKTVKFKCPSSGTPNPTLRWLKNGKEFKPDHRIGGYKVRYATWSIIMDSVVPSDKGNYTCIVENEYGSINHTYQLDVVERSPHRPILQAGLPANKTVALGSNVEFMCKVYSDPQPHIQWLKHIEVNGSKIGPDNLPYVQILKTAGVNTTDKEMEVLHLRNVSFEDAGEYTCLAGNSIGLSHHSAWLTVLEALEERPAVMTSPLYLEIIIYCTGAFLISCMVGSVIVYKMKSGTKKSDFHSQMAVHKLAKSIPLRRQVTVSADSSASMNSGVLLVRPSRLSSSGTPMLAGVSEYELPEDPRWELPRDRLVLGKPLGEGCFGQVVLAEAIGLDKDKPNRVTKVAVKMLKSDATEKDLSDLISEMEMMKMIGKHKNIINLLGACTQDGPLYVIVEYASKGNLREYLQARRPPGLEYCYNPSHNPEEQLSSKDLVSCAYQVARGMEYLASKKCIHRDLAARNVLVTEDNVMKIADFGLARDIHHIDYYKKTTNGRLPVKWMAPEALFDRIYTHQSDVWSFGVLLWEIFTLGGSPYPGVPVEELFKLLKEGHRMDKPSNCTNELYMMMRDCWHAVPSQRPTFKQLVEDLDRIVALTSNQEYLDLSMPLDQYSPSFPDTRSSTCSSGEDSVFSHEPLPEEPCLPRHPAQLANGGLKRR
# Experimental: as §1
# Sequence of FGFR4 (P22455 22-802): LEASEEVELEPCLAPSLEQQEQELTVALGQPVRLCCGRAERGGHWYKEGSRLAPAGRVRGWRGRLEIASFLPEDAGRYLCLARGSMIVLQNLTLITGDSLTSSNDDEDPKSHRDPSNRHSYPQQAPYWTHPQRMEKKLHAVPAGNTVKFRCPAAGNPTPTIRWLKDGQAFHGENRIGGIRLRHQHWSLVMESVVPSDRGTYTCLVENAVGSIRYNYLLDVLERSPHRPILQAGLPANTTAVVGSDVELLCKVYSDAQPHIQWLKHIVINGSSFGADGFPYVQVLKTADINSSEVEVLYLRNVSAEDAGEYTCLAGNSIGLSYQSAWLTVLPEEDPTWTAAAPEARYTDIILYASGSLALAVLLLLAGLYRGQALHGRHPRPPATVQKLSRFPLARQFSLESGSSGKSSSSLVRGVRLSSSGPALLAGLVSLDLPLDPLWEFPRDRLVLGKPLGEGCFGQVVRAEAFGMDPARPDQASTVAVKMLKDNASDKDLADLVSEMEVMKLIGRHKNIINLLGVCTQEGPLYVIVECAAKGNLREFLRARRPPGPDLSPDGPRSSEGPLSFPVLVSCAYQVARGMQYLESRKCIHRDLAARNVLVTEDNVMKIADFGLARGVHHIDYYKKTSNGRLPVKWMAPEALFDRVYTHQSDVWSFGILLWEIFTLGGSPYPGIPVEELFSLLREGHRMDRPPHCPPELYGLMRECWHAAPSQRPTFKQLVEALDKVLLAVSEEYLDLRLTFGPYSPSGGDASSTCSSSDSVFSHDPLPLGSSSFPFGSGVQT
Compound,IC50 [1],IC50 [2],IC50 [3]
"C=CC(=O)Nc1cccc(F)c1Nc1ncc2cc(-c3c(F)c(OC)cc(OC)c3F)c3nccn3c2n1 [Synthesis Example 72, N-(2-((6-(2,6-difluoro-3,5-dimethoxyphenyl)imidazo[1′,2′:1,6]pyrido[2,3-d]pyrimidin-2-yl)amino)-3-fluorophenyl)acrylamide]",< 0.05 µM,< 0.05 µM,> 0.5 µM
"C=CC(=O)Nc1cc(N2CCOCC2)ccc1Nc1cc2c(cn1)cc(-c1c(Cl)c(OC)cc(OC)c1Cl)c1nccn12 [Synthesis Example 83, N-(2-((4-(2,6-dichloro-3,5-dimethoxyphenyl)imidazo[1,2-a][1,6]naphthyridin-8-yl)amino)-5-morpholinophenyl)acrylamide]",< 0.05 µM,< 0.05 µM,< 0.05 µM
C=CC(=O)Nc1cccc(C)c1Nc1ncc2cc(-c3c(Cl)c(OC)cc(OC)c3Cl)c3nccn3c2n1 [compound 9],< 0.05 µM,0.05 to 0.5 µM,> 0.5 µM
C=CC(=O)Nc1cccc(F)c1Nc1ncc2cc(-c3c(Cl)c(OC)cc(OC)c3Cl)c3nccn3c2n1 [compound 10],< 0.05 µM,< 0.05 µM,0.05 to 0.5 µM
C=CC(=O)Nc1cccc(OC)c1Nc1ncc2cc(-c3c(Cl)c(OC)cc(OC)c3Cl)c3nccn3c2n1 [compound 11],< 0.05 µM,0.05 to 0.5 µM,0.05 to 0.5 µM
C=CC(=O)Nc1cc(S(C)(=O)=O)ccc1Nc1ncc2cc(-c3c(Cl)c(OC)cc(OC)c3Cl)c3nccn3c2n1 [compound 18],< 0.05 µM,0.05 to 0.5 µM,< 0.05 µM
C=CC(=O)Nc1cc(N(C)CCOC)ccc1Nc1ncc2cc(-c3c(Cl)c(OC)cc(OC)c3Cl)c3nccn3c2n1 [compound 25],< 0.05 µM,< 0.05 µM,< 0.05 µM
C=CC(=O)Nc1cc(OCCOC)ccc1Nc1ncc2cc(-c3c(Cl)c(OC)cc(OC)c3Cl)c3nccn3c2n1 [compound 29],< 0.05 µM,< 0.05 µM,< 0.05 µM
C=CC(=O)Nc1cc(N2CCN(CC)CC2)ccc1Nc1ncc2cc(-c3c(Cl)c(OC)cc(OC)c3Cl)c3nccn3c2n1 [compound 31],< 0.05 µM,< 0.05 µM,–
C=CC(=O)Nc1cc(N2CCOCC2)ccc1Nc1ncc2cc(-c3c(Cl)c(OC)cc(OC)c3Cl)c3nccn3c2n1 [compound 32],< 0.05 µM,< 0.05 µM,–
C=CC(=O)Nc1cc(N2CCN(S(C)(=O)=O)CC2)ccc1Nc1ncc2cc(-c3c(Cl)c(OC)cc(OC)c3Cl)c3nccn3c2n1 [compound 35],< 0.05 µM,< 0.05 µM,< 0.05 µM
C=CC(=O)Nc1cc(N2CCS(=O)(=O)CC2)ccc1Nc1ncc2cc(-c3c(Cl)c(OC)cc(OC)c3Cl)c3nccn3c2n1 [compound 36],< 0.05 µM,< 0.05 µM,< 0.05 µM
C=CC(=O)Nc1cc(N2CC(OC)C2)ccc1Nc1ncc2cc(-c3c(Cl)c(OC)cc(OC)c3Cl)c3nccn3c2n1 [compound 37],< 0.05 µM,< 0.05 µM,< 0.05 µM
C=CC(=O)Nc1cc(N2C[C@@H](C)O[C@@H](C)C2)ccc1Nc1ncc2cc(-c3c(Cl)c(OC)cc(OC)c3Cl)c3nccn3c2n1 [compound 38],< 0.05 µM,< 0.05 µM,< 0.05 µM
C=CC(=O)Nc1cc(N2CCNCC2)ccc1Nc1ncc2cc(-c3c(Cl)c(OC)cc(OC)c3Cl)c3nccn3c2n1 [compound 39],< 0.05 µM,< 0.05 µM,< 0.05 µM
C=CC(=O)Nc1cc(N2CC[C@H](N(C)C)C2)ccc1Nc1ncc2cc(-c3c(Cl)c(OC)cc(OC)c3Cl)c3nccn3c2n1 [compound 48],< 0.05 µM,< 0.05 µM,< 0.05 µM
C=CC(=O)Nc1cc(N2CCN(C)CC2)ccc1Nc1ncc2cc(-c3c(Cl)c(OC)cc(OC)c3Cl)c3nccn3c2n1 [compound 52],< 0.05 µM,< 0.05 µM,< 0.05 µM
C=CC(=O)Nc1cc(O[C@@H]2CCOC2)ccc1Nc1ncc2cc(-c3c(Cl)c(OC)cc(OC)c3Cl)c3nccn3c2n1 [compound 53],< 0.05 µM,< 0.05 µM,–
C=CC(=O)Nc1cc(OC2CCCC2)ccc1Nc1ncc2cc(-c3c(Cl)c(OC)cc(OC)c3Cl)c3nccn3c2n1 [compound 54],0.05 to 0.5 µM,0.05 to 0.5 µM,> 0.5 µM
C=CC(=O)Nc1cc(C)cc(C)c1Nc1ncc2cc(-c3c(Cl)c(OC)cc(OC)c3Cl)c3nccn3c2n1 [compound 58],0.05 to 0.5 µM,0.05 to 0.5 µM,> 0.5 µM
C=CC(=O)Nc1cc(N2CCOCC2)c(C)cc1Nc1ncc2cc(-c3c(Cl)c(OC)cc(OC)c3Cl)c3nccn3c2n1 [compound 61],< 0.05 µM,< 0.05 µM,< 0.05 µM
C=CC(=O)Nc1cc(OC2CCN(C)CC2)c(F)cc1Nc1ncc2cc(-c3c(Cl)c(OC)cc(OC)c3Cl)c3nccn3c2n1 [compound 62],–,< 0.05 µM,–
C=CC(=O)Nc1cc(N2CCOCC2)cc(C)c1Nc1ncc2cc(-c3c(Cl)c(OC)cc(OC)c3Cl)c3nccn3c2n1 [compound 63],< 0.05 µM,0.05 to 0.5 µM,0.05 to 0.5 µM
C=CC(=O)Nc1cc(F)cc(C)c1Nc1ncc2cc(-c3c(Cl)c(OC)cc(OC)c3Cl)c3nccn3c2n1 [compound 64],–,> 0.5 µM,–
C=CC(=O)Nc1cc(N2CCOCC2)cc(OC)c1Nc1ncc2cc(-c3c(Cl)c(OC)cc(OC)c3Cl)c3nccn3c2n1 [compound 65],–,0.05 to 0.5 µM,–
C=CC(=O)Nc1cc(N2CCN(CC)CC2)cc(F)c1Nc1ncc2cc(-c3c(Cl)c(OC)cc(OC)c3Cl)c3nccn3c2n1 [compound 66],–,> 0.5 µM,–
C=CC(=O)Nc1cc(N2CCOCC2)cc(F)c1Nc1ncc2cc(-c3c(Cl)c(OC)cc(OC)c3Cl)c3nccn3c2n1 [compound 67],–,0.05 to 0.5 µM,–
C=CC(=O)Nc1cc(N2CCOCC2)cc(Cl)c1Nc1ncc2cc(-c3c(Cl)c(OC)cc(OC)c3Cl)c3nccn3c2n1 [compound 68],–,> 0.5 µM,–
C=CC(=O)Nc1cccnc1Nc1ncc2cc(-c3c(Cl)c(OC)cc(OC)c3Cl)c3nccn3c2n1 [compound 69],–,0.05 to 0.5 µM,–
C=CC(=O)Nc1cc(N2CCOCC2)ccc1Nc1ncc2cc(-c3c(F)c(OC)cc(OC)c3F)c3nccn3c2n1 [compound 73],–,< 0.05 µM,–

# Other lines, results leading:
IC50 [1],IC50 [2],IC50 [3],Compound
–,0.05 to 0.5 µM,–,C=CC(=O)Nc1cc(N2CCOCC2)cnc1Nc1ncc2cc(-c3c(Cl)c(OC)cc(OC)c3Cl)c3nccn3c2n1 [compound 70]
–,0.05 to 0.5 µM,–,C=CC(=O)Nc1cn(C)nc1Nc1ncc2cc(-c3c(Cl)c(OC)cc(OC)c3Cl)c3nccn3c2n1 [compound 71]
–,< 0.05 µM,–,C=CC(=O)Nc1cccc(Nc2ncc3cc(-c4c(F)c(OC)cc(OC)c4F)c4nccn4c3n2)c1 [compound 74]
–,< 0.05 µM,–,C=CC(=O)Nc1ccccc1Nc1ncc2cc(-c3c(F)c(OC)cc(OC)c3F)c3nccn3c2n1 [compound 75]
–,0.05 to 0.5 µM,–,C=CC(=O)Nc1cc(F)cc(F)c1Nc1ncc2cc(-c3c(F)c(OC)cc(OC)c3F)c3nccn3c2n1 [compound 76]
–,0.05 to 0.5 µM,–,C=CC(=O)Nc1cc(F)c(F)cc1Nc1ncc2cc(-c3c(F)c(OC)cc(OC)c3F)c3nccn3c2n1 [compound 77]
–,0.05 to 0.5 µM,–,C=CC(=O)Nc1ccc(F)c(F)c1Nc1ncc2cc(-c3c(F)c(OC)cc(OC)c3F)c3nccn3c2n1 [compound 78]
–,0.05 to 0.5 µM,–,C=CC(=O)Nc1cccc(Cl)c1Nc1ncc2cc(-c3c(F)c(OC)cc(OC)c3F)c3nccn3c2n1 [compound 79]
–,> 0.5 µM,–,COc1cc(OC)c(Cl)c(-c2cc3cnc(-c4cncc(N5CCOCC5)c4)nc3n3ccnc23)c1Cl [compound 81]
–,> 0.5 µM,–,C=CC(=O)Nc1cc(-c2ncc3cc(-c4c(Cl)c(OC)cc(OC)c4Cl)c4nccn4c3n2)cc(N2CCOCC2)c1 [compound 82]
–,< 0.05 µM,–,C=CC(=O)Nc1cc(N2C[C@@H](C)O[C@@H](C)C2)ccc1Nc1cc2c(cn1)cc(-c1c(Cl)c(OC)cc(OC)c1Cl)c1nccn12 [compound 84]
< 0.05 µM,< 0.05 µM,< 0.05 µM,C=CC(=O)Nc1cc(N2CCN(CC)CC2)ccc1Nc1cc2c(cn1)cc(-c1c(Cl)c(OC)cc(OC)c1Cl)c1nccn12 [compound 85]
–,< 0.05 µM,–,C=CC(=O)Nc1cc(N2CCOCC2)cnc1Nc1cc2c(cn1)cc(-c1c(Cl)c(OC)cc(OC)c1Cl)c1nccn12 [compound 86]
–,< 0.05 µM,–,C=CC(=O)Nc1cn(C)nc1Nc1cc2c(cn1)cc(-c1c(Cl)c(OC)cc(OC)c1Cl)c1nccn12 [compound 87]
